Measured values taken from article PMC10882719 (Frontiers in Neuroscience, 2024).
Where two headings read alike, the source gives them in different places.

Tests used:
Format in all cases: cell-based
168 GPCRs [1] = biological target: T1, 168 GPCRs (Homo sapiens, UniProt P25116); settings: F2R
T1 construct: host or cells: PathHunter cell lines
T1 sequence (P25116 22-425): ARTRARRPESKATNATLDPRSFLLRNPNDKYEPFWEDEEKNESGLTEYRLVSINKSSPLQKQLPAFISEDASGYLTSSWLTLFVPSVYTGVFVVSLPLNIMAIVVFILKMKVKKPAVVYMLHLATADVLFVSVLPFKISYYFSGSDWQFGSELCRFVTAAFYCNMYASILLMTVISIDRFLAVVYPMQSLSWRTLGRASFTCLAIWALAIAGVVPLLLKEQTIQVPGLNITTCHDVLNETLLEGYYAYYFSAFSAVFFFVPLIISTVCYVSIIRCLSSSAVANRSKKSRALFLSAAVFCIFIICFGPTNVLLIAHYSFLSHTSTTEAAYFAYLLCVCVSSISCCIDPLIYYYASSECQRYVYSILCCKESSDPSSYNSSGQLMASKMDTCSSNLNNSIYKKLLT

168 GPCRs [2] = biological target: T2, 168 GPCRs (Homo sapiens, UniProt P41587); settings: VIPR2
T2 construct: host or cells: PathHunter cell lines
T2 sequence (P41587 24-438): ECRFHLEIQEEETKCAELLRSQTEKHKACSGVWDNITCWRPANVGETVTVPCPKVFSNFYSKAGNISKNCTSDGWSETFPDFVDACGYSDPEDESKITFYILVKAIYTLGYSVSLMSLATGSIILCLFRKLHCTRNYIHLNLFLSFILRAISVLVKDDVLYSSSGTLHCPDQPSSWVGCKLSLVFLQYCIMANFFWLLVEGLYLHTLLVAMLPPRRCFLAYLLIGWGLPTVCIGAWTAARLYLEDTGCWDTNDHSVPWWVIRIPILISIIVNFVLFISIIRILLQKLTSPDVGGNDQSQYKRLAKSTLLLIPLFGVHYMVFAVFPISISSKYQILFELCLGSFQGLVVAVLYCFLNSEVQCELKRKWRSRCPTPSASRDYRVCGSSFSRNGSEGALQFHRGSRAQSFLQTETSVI

168 GPCRs [3] = biological target: T3, 168 GPCRs (Homo sapiens, UniProt P08172)
T3 construct: host or cells: PathHunter cell lines
T3 sequence (P08172 1-466): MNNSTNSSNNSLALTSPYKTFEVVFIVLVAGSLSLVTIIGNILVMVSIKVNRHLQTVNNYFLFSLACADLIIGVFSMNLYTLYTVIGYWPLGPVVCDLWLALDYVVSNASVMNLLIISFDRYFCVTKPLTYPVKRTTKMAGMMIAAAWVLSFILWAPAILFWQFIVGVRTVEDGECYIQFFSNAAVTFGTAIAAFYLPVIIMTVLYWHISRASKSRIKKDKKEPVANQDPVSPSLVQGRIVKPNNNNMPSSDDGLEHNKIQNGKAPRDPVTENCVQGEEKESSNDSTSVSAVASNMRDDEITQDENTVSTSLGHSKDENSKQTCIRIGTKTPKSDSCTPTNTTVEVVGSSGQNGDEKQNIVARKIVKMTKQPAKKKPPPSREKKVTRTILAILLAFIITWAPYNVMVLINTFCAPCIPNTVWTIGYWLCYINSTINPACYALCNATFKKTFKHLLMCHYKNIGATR

168 GPCRs [4] = biological target: T4, 168 GPCRs (Homo sapiens, UniProt P30411)
T4 construct: host or cells: PathHunter cell lines
T4 sequence (P30411 1-391): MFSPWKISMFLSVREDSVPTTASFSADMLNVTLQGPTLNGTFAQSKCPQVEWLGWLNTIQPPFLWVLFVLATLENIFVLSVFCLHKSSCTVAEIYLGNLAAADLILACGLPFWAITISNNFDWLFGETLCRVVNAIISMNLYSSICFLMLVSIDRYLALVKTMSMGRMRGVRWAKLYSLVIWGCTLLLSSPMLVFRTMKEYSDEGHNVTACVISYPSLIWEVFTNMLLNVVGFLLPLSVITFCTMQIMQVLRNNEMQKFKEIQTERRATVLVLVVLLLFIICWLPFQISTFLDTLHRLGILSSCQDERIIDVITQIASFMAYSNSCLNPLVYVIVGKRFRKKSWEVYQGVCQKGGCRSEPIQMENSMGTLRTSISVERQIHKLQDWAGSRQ

168 GPCRs [5] = biological target: T5, 168 GPCRs (Homo sapiens, UniProt P41231); settings: P2RY2
T5 construct: host or cells: PathHunter cell lines

168 GPCRs [6] = biological target: T6, 168 GPCRs (Homo sapiens, UniProt P14416); settings: DRD2L
T6 construct: host or cells: PathHunter cell lines
T6 sequence (P14416 whole entry): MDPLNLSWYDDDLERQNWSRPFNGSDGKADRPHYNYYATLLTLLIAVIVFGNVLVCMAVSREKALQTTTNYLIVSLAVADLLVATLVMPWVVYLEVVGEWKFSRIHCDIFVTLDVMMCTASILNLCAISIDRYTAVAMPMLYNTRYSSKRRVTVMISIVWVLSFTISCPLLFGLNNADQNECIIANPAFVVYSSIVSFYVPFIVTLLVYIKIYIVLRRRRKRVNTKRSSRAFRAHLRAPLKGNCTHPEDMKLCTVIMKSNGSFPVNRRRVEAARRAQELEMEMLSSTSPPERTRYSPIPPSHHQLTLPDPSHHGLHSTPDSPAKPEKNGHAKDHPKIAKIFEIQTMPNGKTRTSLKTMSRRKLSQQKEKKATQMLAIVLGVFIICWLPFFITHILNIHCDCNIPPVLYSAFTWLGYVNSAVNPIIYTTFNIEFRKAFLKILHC

T5 sequence (P41231 whole entry): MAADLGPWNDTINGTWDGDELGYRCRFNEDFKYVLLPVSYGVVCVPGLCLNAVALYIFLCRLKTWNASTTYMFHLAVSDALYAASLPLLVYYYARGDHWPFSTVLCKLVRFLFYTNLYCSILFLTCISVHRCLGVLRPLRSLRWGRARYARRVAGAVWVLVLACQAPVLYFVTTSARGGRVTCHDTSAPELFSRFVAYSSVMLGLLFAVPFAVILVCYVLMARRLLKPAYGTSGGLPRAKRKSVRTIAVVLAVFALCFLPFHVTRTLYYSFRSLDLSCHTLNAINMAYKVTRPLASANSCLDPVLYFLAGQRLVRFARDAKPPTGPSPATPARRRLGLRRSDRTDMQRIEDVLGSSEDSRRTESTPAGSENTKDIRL

SMILES | % Agonist Activity (168 GPCRs [1]; 1 uM) | % Antagonist Activity (168 GPCRs [1]; 1 uM) | % Agonist Activity (168 GPCRs [1]; 10 uM) | % Antagonist Activity (168 GPCRs [1]; 10 uM) | % Agonist Activity (168 GPCRs [2]; Conc 1 uM) | % Antagonist Activity (168 GPCRs [2]; Conc 1 uM) | % Agonist Activity (168 GPCRs [2]; Conc 10 uM) | % Antagonist Activity (168 GPCRs [2]; Conc 10 uM) | % Agonist Activity (168 GPCRs [3]; CHRM2, 1 uM) | % Antagonist Activity (168 GPCRs [3]; CHRM2, 1 uM) | % Agonist Activity (168 GPCRs [3]; CHRM2, 10 uM) | % Antagonist Activity (168 GPCRs [3]; CHRM2, 10 uM) | % Agonist Activity (168 GPCRs [4]; BDKRB2, 1 uM) | % Antagonist Activity (168 GPCRs [4]; BDKRB2, 1 uM) | % Agonist Activity (168 GPCRs [4]; BDKRB2, 10 uM) | % Antagonist Activity (168 GPCRs [4]; BDKRB2, 10 uM) | % Agonist Activity (168 GPCRs [5]; Conc 1 uM) | % Antagonist Activity (168 GPCRs [5]; Conc 1 uM) | % Agonist Activity (168 GPCRs [5]; Conc 10 uM) | % Antagonist Activity (168 GPCRs [5]; Conc 10 uM) | further results
CNC(C)Cc1ccc2c(c1)OCO2 (stereo not drawn) [MDMA, 3,4-Methylenedioxy methamphetamine, reference compound] | -0.7% | 1.2% | -1.2% | 5.9% | -1.6% | -1.1% | -0.7% | 3.1% | 0.9% | -1% | 1.4% | 10.5% | 0.3% | -6.6% | 0.1% | -5.6% | 6.6% | 11.5% | 7.8% | 9.6% | % Agonist Activity (168 GPCRs [6]; 1 uM): 3.3%; % Antagonist Activity (168 GPCRs [6]; 1 uM): 4.8%; % Agonist Activity (168 GPCRs [6]; 10 uM): 2.6%; % Antagonist Activity (168 GPCRs [6]; 10 uM): 11.7%
CNC(C)C(=O)c1ccc2c(c1)OCO2 (stereo not drawn) [methylone] | -2.5% | -11.6% | 0.2% | -11.4% | -0.4% | -1.5% | -0.3% | -2.6% | -0.2% | -18.5% | 0.2% | -7.4% | -3.6% | 7.3% | -2.9% | -2.6% | -2.1% | 5.4% | -2.7% | 1.8% | % Agonist Activity (168 GPCRs [6]; 1 uM): 0.1%; % Antagonist Activity (168 GPCRs [6]; 1 uM): 1.1%; % Agonist Activity (168 GPCRs [6]; 10 uM): -0.7%; % Antagonist Activity (168 GPCRs [6]; 10 uM): 0.1%
